These antisense oligonucleotides have a phosphorothioate backbone; sugars and methylation of C are not fully specified. Where only a bound is given, the exact number is not on record here.
Also: test concentration or dose not given here.

The target of the first series is RHOB. Conditions: ASO.
AACTCGTCCTTACTGAAC showed a remaining target (mRNA or protein) (fraction of control) of 0.7. AAGCACATGAGAATGACG gave a remaining target (mRNA or protein) (fraction of control) of at least 1. ACCTCGCGCACGCCTTCC gave a remaining target (mRNA or protein) (fraction of control) of at least 1.

As to ACGGGTTCCTGCTTCATG, the remaining target (mRNA or protein) (fraction of control) was at least 1.

Sequence ACTGAACACGATCAGCAG displayed a remaining target (mRNA or protein) (fraction of control) of at least 1.

With AGACCTCGCGCACGCCTT, the remaining target (mRNA or protein) (fraction of control) is 0.84. Still for that read-out and setting: to AGCACCTTGCAGCAGTTG belongs at least 1; to ATGTTCTCCAGCGAGTCC, at least 1. Same read-out and setting: under CAGCAGTTGATGCAGCCG stands 0.69; under CATAGTTCTCGAAGACGG, at least 1.

Consider CCACCACCAGCTTCTTGC, for which the remaining target (mRNA or protein) (fraction of control) is at least 1. In turn, CCAGCTCTGTGCGGACAT displayed a remaining target (mRNA or protein) (fraction of control) of 0.79. CCGTCCACCTCAATGTCG: the remaining target (mRNA or protein) (fraction of control) was at least 1. On the same count and under the same terms, under CCGTCGCCCACCACCACC stands at least 1; under CCTTACTGAACACGATCA, at least 1; under CGAAGACCTCGCGCACGC, at least 1.

On to CGAGGTAGTCGTAGGCTT, for which the remaining target (mRNA or protein) (fraction of control) is 0.61. Same read-out and setting: to CGGACATGCTCGTCGCTG belongs at least 1; to CGGGCCAGCTCTGTGCGG, 0.62; to CGTGGCCGTCTCGAAGAC, at least 1. Consider CTCGAAGACCTCGCGCAC, for which the remaining target (mRNA or protein) (fraction of control) was at least 1. CTCGTCCTTACTGAACAC returned a remaining target (mRNA or protein) (fraction of control) of 0.99. Same read-out and setting: to CTCTGTGCGGACATGCTC belongs 0.61. Same read-out and setting: under GACATGCTCGTCGCTGCG stands at least 1; under GAGTCCGGGCTGTCCACC, at least 1. Sequence GATGCAGCCGTTCTGGGA yielded a remaining target (mRNA or protein) (fraction of control) of at least 1. Sequence GCACGTCTTGCCACACGC came in with a remaining target (mRNA or protein) (fraction of control) of at least 1.

Regarding GCCGTCTCGAAGACCTCG, the remaining target (mRNA or protein) (fraction of control) was at least 1. Regarding GCCGTTCTGGGAGCCGTA, the remaining target (mRNA or protein) (fraction of control) is at least 1. The same measure, in the same setting: to GGGATGTTCTCCAGCGAG belongs 0.67; to GTAGTCGTAGGCTTGGAT, 0.71; to GTCCTTACTGAACACGAT, 0.95. Still for that read-out and setting: under GTCTTGGCAGAGCACTCG stands 0.8; under GTTCCTGCTTCATGCGGG, 0.73. Take GTTCTGGGAGCCGTAGCG: the remaining target (mRNA or protein) (fraction of control) came to 0.64. In turn, GTTGATGCAGCCGTTCTG returned a remaining target (mRNA or protein) (fraction of control) of 0.93. TCGGCCACATAGTTCTCG returned a remaining target (mRNA or protein) (fraction of control) of 0.87. Still for that read-out and setting: to TGCGGGCCAGCTCTGTGC belongs 0.69. Still for that read-out and setting: under TGTGCGGACATGCTCGTC stands at least 1. As for TTACTGAACACGATCAGC, the remaining target (mRNA or protein) (fraction of control) is at least 1.

The next series has as its target SMAD7. Conditions: ASO.
Sequence AAAACAGAACACAAACGA had a remaining target (mRNA or protein) (fraction of control) of at least 1. The sequence AAAACCTGATGTCACCAG displayed a remaining target (mRNA or protein) (fraction of control) of at least 1. The same measure, in the same setting: to AACCTTTGTAGTTAGAAA belongs 0.94.

As to AATTGGTTCTGGTTCGGC, the remaining target (mRNA or protein) (fraction of control) is at least 1. Same read-out and setting: to ACACACAGGATGGGAGCA belongs at least 1. ACCTTGTGTACCAACAGC had a remaining target (mRNA or protein) (fraction of control) of at least 1. The sequence ACTCACACACACTCCTGA had a remaining target (mRNA or protein) (fraction of control) of 0.79. The same measure, in the same setting: under AGAAGTTGGGAATCTGAA stands at least 1; under AGCACCGAGTGCGTGAGC, 0.72. In the case of AGCCTCTTGACTTCCGAG, the remaining target (mRNA or protein) (fraction of control) is at least 1.

For another series, the target named is TERF1. Conditions: ASO.
Take ACTGGCAAGCTGTTAGACTG: the remaining target (mRNA or protein) (fraction of control) is 0.49. On the same count and under the same terms, under AGGTTTATCTTGAGAAGTTA stands at least 1. On the same count and under the same terms, under AGTCTTCGCTGTCTGAGGAA stands 0.59; under ATATTAAATGAAGGTATCAG, at least 1; under CAAACAAAATGCAGTGATCA, 0.84. Same read-out and setting: to CACAGTCCCCAGTAGGTAAG belongs 0.56. Sequence CATCCTCCGCCATGTTAAAT displayed a remaining target (mRNA or protein) (fraction of control) of 0.73. On the same count and under the same terms, under CCAAATCATCAGGGCTGATT stands at least 1; under CTCGGAGCGGCCGTCGCGGA, 0.9.

In turn, CTCGGCCACCAGGCCCGCGT displayed a remaining target (mRNA or protein) (fraction of control) of 0.82.

Take CTGAGGAAACATCCTCCGCC: the remaining target (mRNA or protein) (fraction of control) stood at 0.68.

With CTTTCTGAGAGATTATCAT, the remaining target (mRNA or protein) (fraction of control) came out at 0.93. The same measure, in the same setting: to GAAACCCCGCCTCTACTAAA belongs 0.74; to GACATCAAGATGATCATAGT, at least 1.

Take GAGGTTCAGTGAGCTGAAAT: the remaining target (mRNA or protein) (fraction of control) came to 0.81. As for GCAGGGTTCAACAAATTTAC, the remaining target (mRNA or protein) (fraction of control) was determined as 0.75. The same measure, in the same setting: to GCCATGTTAAATGGCTCGAT belongs 0.61; to GCCATTTTCCATACAAACAG, 0.81.

On to GCTTTTACAAACACAATCAG, for which the remaining target (mRNA or protein) (fraction of control) turned out to be 0.73.

For GGCAGGTTTGTTAGCTGAGT, the remaining target (mRNA or protein) (fraction of control) is at least 1. Take GGCTGACTCTTTGAAACAGG: the remaining target (mRNA or protein) (fraction of control) is 0.6. The same measure, in the same setting: under GGGTTACGTTACAGGGTTGA stands at least 1; under TAAGAAAAGATTCTTGTGAG, 0.71. Consider TAGGCATCAGGTTATAAAGA, for which the remaining target (mRNA or protein) (fraction of control) is 0.73.

The sequence TCAGTCTTCGCTGTCTGAGG showed a remaining target (mRNA or protein) (fraction of control) of 0.46. On the same count and under the same terms, to TCTGCTCCTCAGTAGGGTCG belongs 0.68; to TTAAACACTGGAACAAAAGT, at least 1.

As for TTAACTCTGGTAGCACAAAC, the remaining target (mRNA or protein) (fraction of control) was found to be 0.59. In turn, TTACAAACACAATCAGTCTT yielded a remaining target (mRNA or protein) (fraction of control) of 0.77.

In turn, TTACTCTGTACATTTATCAT displayed a remaining target (mRNA or protein) (fraction of control) of at least 1. Turning to TTTAGACCAGTTTCCCTCTC, the remaining target (mRNA or protein) (fraction of control) was 0.68. Sequence TTTAGGCAGGACGCAGTGGC displayed a remaining target (mRNA or protein) (fraction of control) of 0.47. TTTGTCCCATGGGTAATACT had a remaining target (mRNA or protein) (fraction of control) of 0.97.

TTTTACAAACACAATCAGTC gave a remaining target (mRNA or protein) (fraction of control) of 0.77.
